{
  "source": "patent US20230285294A1",
  "about": "“METHOD AND SYSTEM FOR OTOTOPICAL DELIVERY USING NANOPARTICLES FOR EAR INFECTION DIAGNOSIS AND TREATMENT” (THE BOARD OF TRUSTEES OF THE LELAND STANFORD JUNIOR …, priority 2020, published 2023)",
  "test_system": "eardrum",
  "test": "Confocal microscopy of ear sections: permeation of vesicles through the eardrum into the middle and inner ear",
  "text": "Further consideration of the various images in FIGS. 10A-11D one may observe from these confocal images of eardrum and vesicles penetration into the middle ear at different time points. To verify the permeation of the formulated vesicles through the eardrum we looked at the ear sections under confocal microscopy. […] (See FIG. 11B).\nFIGS. 12A-14D relate to a series of confocal imaging at higher magnification of tympanic membrane.\nFIG. 15A is showing imaging specificity of TF-RnB in red. FIG. 15B is showing imaging specificity to DAPI in blue. FIG. 15C is showing a color composite overlay of the images in FIGS. 15A and 15B.\nThese confocal images from inner ear show particle penetrations beyond the middle ear to inner ear. (FIG. 15C). As such, it is believed that potential applications of various embodiments of a liposomal nanoparticle may be used for inner ear drug delivery.",
  "data": [
    {"smiles": "CCN(CC)c1ccc2c(-c3ccccc3C(=O)O)c3ccc(=[N+](CC)CC)cc-3oc2c1.[Cl-]", "note": "[pure RhB, Rhodamine B]", "values": [
      {"measurement": "penetration of tympanic membrane layers (confocal imaging at higher magnification)", "setting": "6 hours, FIGS. 12D and 14D", "result": "stays on the surface of tympanic membrane without any penetration"},
      {"measurement": "penetration through eardrum into middle ear (confocal fluorescence)", "setting": "6 h post-treatment", "result": "did not observe any fluorescent"}
    ]}
  ]
}
